According to US5900231A, “Silicone-containing derivatives of salicylic acid which have desquamating properties” (L'Oreal, priority 1996, dated 1999):

Tests used:
[1] = solubility in MIGLYOL 812 (mixture of caprylic acid and capric acid triglyceride); format: physicochemical
Protocol: The solubility of the silicon-containing derivatives of salicylic acid according to the invention in organic media was evaluated by comparing the solubility of 5-n-octanoylsalicylic acid with inventive compounds:
in a mixture of caprylic acid and capric acid triglyceride, marketed under the name MIGLYOL 812 by the company Huls.

keratinocytes = assay: in vitro test of the efficacy of the desquamation on keratinocytes (release of corneocytes, flow cytometry); format: cell-based; conditions: for cell detachment index (difference between T60 and T0; release of corneocytes relative to control): 60 minutes after addition, relative to control without test product, equal concentrations; for desquamating activity compared with 5-n-octanoylsalicylic acid: at a concentration equal to that of 5-n-octanoylsalicylic acid
Protocol: An in vitro test of the efficacy of the desquamation was carried out on keratinocytes using 5-n-octanoylsalicylic acid (compound C1), 2-hydroxy4-(3-trimethylsilanylpropyloxy)benzoic acid (compound C2) and 2-hydroxy-5-(3-trimethylsilanylpropyloxy)benzoic acid (compound C3). C1 is a known powerful desquamating active agent, but not part of the present invention. C2 and C3 are compounds of the present invention.
The principle of the test rests on the fact that desquamation is known to induce the release of corneocytes. The desquamating power of the test product should be proportionately greater the larger the number of corneocytes released.
The test procedure was as follows: keratinocytes were obtained by separating the epidermis from skin biopsies, and these keratinocytes were dissociated by enzymatic action with trypsin and cultured at a concentration of 2×10^5 cells/ml. Growth and differentiation of the keratinocytes were obtained by culturing for 10 to 20 days in specific medium.
Next, after removing the culture medium, the test product was added and the activity of the product evaluated. To do this, two samples were taken at T0 and T60, i.e., before addition of the product and 60 minutes after this addition, and the samples thus taken were analysed on a flow cytometer to count the population of corneocytes.
The cell detachment index was determined by the difference between T60 and T0.
The same measurement was taken for a control containing no test product since the experiment inevitably produces the release of corneocytes, even in the absence of active agent. The variation of the control arbitrarily set the standard at 100%.

SMILES	Solubility at room temperature [1] [%]	cell detachment index (difference between T60 and T0; release of corneocytes relative to control) (keratinocytes) [%]	desquamating activity compared with 5-n-octanoylsalicylic acid (keratinocytes)
CC(Cc1cccc(C(=O)O)c1O)C[Si](C)(O[Si](C)(C)C)O[Si](C)(C)C (stereo not shown) [Compound C5, 2-hydroxy-3-[2-methyl-3-[1,3,3,3-tetramethyl-1-[(trimethylsilyl)oxy]disiloxanyl]propyl]benzoic acid]	> 20		
CCCCCCCC(=O)c1ccc(O)c(C(=O)O)c1 [Compound C1, 5-n-octanoylsalicylic acid, reference compound]	< 1.5	103	
CC(COc1ccc(C(=O)O)c(O)c1)C[Si](C)(O[Si](C)(C)C)O[Si](C)(C)C (stereo not shown) [Compound C4, 2-hydroxy-4-[2-methyl-3-[1,3,3,3-tetramethyl-1-[(trimethyl-silyl)oxy]disiloxanyl]propyloxy]benzoic acid]	6		
C[Si](C)(C)CCCOc1ccc(O)c(C(=O)O)c1 [Compound C3, 2-hydroxy-5-(3-trimethylsilanylpropyloxy)benzoic acid]	7	135	much more active than the latter
C[Si](C)(C)CCCOc1ccc(C(=O)O)c(O)c1 [Compound C2, 2-hydroxy-4-(3-trimethylsilanylpropyloxy)benzoic acid]	2	157	much more active than the latter
